According to patent publication US11952384B2, “Anti-tumor compound and preparation method and use thereof” (DUALITY BIOLOGICS (SUZHOU) CO., LTD., priority 2020, dated 2024):
Where two headings read alike, the source gives them in different places.

Key:
[1] = tested on: MDA-MB-231 cells; test: Inhibition of in vitro proliferation of tumor cells by compounds (CTG, 6 days); assay type: cell-based; conditions: small molecule fragments, 6 days of culture, CTG, read-out: MDA-MB-231 IC50
Description: To test the inhibitory activity of the pharmaceutical compounds on the in vitro proliferation of NCI-N87, JIMT-1 and MBA-MB-231 tumor cells. The cells were treated with compounds at different concentrations in vitro, and after 6 days of culture, the proliferation of cells was detected using CTG (CellTiter-Glo® Luminescent Cell Viability Assay, Promega, Cat. No. G7558) reagents, and the in vitro activity of the compounds was evaluated according to the IC50 value. • 1. Culturing of cells: NCI-N87/JIMT-1/MBA-MB-231 cells were cultured in RPMI-1640 medium containing 10% FBS. • 2. Preparation of cells: NCI-N87/JIMT-1/MBA-MB-231 cells in logarithmic phase were taken, washed with PBS once, and digested with 2-3 mL of trypsin for 2-3 min. After the cells were digested completely, 10-15 mL of cell culture was added to elute the digested cells. The eluate was centrifuged at 1000 rpm for 5 min, and the supernatant was discarded. The resulting cells were resuspended in 10-20 mL of cell culture to obtain a single cell suspension. • 3. Cell plating: the NCI-N87/JIMT-1/MBA-MB-231 single cell suspension was mixed well and adjusted to a viable cell density of 6×10^4 cells/mL with cell culture. The cell suspension with the adjusted density was mixed well and added to a 96-well cell culture plate at 50 μL/well. The culture plate was incubated in an incubator for 18 h (37° C., 5% CO2). • 4. Preparation of compounds: the compounds were dissolved in DMSO to obtain stock solutions at an initial concentration of 10 mM. There were 8 concentrations in total for the small molecule compounds: 300 nM, 100 nM, 30 nM, 10 nM, 3 nM, 1 nM, 0.3 nM, and 0.1 nM. • 5. Sample adding: the prepared samples to be detected at different concentrations were added to the culture plate, and two duplicate wells were set for each sample. The culture plate was incubated in an incubator for 6 days (37° C., 5% CO2). • 6. Color developing: the 96-well cell culture plate was taken out, added with the CTG reagent at 50 μL/well, and incubated at room temperature for 10 min. • 7. Plate reading: the 96-well cell culture plate was taken out, placed in a microplate reader, and measured for the chemiluminescence using the microplate reader. Data analysis: data were processed and analyzed using Microsoft Excel and Graphpad Prism 5.

[2] = tested on: Colo205 cells; test: as above; assay type: cell-based; conditions: Homo sapiens, COLO 205, 144 h, Table 4, Test Example 2.4, small molecule fragments, 6 days of culture
Description: To test the inhibitory activity of the pharmaceutical compounds on the in vitro proliferation of NCI-N87 and Colo205 tumor cells. The cells were treated with compounds at different concentrations in vitro, and after 6 days of culture, the proliferation of cells was detected using CTG (CellTiter-Glo® Luminescent Cell Viability Assay, Promega, Cat. No. G7558) reagents, and the in vitro activity of the compounds was evaluated according to the IC50 value. • 1. Culturing of cells: NCI-N87/Colo205 cells were cultured in RPMI-1640 medium containing 10% FBS. • 2. Preparation of cells: NCI-N87/Colo205 cells in logarithmic phase were taken, washed with PBS once, and digested with 2-3 mL of trypsin for 2-3 min. After the cells were digested completely, 10-15 mL of cell culture was added to elute the digested cells. The eluate was centrifuged at 1000 rpm for 5 min, and the supernatant was discarded. […] Sample adding: the prepared samples to be detected at different concentrations were added to the culture plate, and two duplicate wells were set for each sample. […] Plate reading: the 96-well cell culture plate was taken out, placed in a microplate reader, and measured for the chemiluminescence using the microplate reader. Data analysis: data were processed and analyzed using Microsoft Excel and Graphpad Prism 5.

[3] = biological target: T1, BCRP (Homo sapiens, UniProt Q9UNQ0); conditions: Caco-2
T1 sequence (Q9UNQ0 1-655): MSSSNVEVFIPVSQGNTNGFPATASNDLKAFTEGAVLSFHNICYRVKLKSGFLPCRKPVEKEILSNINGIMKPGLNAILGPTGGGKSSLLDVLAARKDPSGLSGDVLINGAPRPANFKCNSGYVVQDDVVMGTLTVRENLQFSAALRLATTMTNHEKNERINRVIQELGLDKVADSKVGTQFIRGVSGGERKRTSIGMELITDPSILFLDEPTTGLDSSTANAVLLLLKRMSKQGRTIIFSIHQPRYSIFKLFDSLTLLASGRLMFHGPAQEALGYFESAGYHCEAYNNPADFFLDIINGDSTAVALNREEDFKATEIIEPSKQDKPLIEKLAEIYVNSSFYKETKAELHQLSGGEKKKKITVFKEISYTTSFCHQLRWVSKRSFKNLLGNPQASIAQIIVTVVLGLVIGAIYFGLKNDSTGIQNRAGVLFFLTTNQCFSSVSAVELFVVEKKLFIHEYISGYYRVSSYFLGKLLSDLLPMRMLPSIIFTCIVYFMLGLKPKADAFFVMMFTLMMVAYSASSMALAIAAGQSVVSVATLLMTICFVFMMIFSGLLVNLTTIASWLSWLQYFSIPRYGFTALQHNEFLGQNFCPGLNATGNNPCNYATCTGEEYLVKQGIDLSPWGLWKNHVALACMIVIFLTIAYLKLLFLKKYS

[4] = biological target: T2, P-gp (Homo sapiens, UniProt P08183); test: Study on transporter substrates in Caco-2 cell model; assay type: in vitro ADME; conditions: Caco-2
T2 construct: endogenous in cells; host or cells: Caco-2
T2 sequence (P08183 whole entry): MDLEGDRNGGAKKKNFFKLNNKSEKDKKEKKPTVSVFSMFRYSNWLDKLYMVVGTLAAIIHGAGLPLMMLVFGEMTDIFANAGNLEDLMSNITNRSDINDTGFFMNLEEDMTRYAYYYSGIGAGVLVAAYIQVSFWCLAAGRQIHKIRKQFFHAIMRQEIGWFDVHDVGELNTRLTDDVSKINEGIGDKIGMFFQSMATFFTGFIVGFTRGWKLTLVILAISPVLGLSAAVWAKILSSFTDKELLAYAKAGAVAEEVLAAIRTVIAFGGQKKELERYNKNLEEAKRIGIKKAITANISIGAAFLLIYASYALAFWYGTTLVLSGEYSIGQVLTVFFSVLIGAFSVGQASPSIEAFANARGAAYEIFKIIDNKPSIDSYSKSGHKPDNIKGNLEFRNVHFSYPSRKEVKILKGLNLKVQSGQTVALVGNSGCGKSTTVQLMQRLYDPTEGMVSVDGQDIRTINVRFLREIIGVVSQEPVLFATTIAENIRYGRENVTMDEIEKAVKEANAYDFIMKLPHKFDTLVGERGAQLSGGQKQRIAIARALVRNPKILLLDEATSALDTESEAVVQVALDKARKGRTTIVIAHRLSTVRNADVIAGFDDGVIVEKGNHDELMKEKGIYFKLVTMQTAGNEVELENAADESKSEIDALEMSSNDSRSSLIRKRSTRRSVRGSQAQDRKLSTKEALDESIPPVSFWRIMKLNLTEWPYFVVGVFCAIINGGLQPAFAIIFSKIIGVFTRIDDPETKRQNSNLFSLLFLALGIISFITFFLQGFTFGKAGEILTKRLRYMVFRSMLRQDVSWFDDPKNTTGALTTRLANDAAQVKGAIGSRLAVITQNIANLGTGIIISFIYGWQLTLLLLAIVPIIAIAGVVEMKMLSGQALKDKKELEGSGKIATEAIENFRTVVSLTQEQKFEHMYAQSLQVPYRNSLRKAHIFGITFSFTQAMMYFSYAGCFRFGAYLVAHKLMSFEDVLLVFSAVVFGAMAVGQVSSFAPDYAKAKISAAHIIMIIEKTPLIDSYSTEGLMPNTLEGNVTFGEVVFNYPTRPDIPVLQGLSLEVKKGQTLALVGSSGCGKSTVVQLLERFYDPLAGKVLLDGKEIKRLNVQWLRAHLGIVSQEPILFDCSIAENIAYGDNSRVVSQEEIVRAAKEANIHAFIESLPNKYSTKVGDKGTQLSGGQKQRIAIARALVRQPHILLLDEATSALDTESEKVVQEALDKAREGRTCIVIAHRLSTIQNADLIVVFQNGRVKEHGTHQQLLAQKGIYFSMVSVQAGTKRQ
Description: The resistance of each well was recorded. […] 2. […] The plate was vortexed for 10 min. The samples were centrifuged. […] HBSS was added to the basolateral compartment. […] 3. Data Analysis
Data were calculated using Microsoft Excel.

[5] = biological target: T1, BCRP; test: in vitro; conditions: for Papp A→B at 2 h: Caco-2, Papp (A-B) (10^−6, cm/s); for Papp B→A at 2 h: Caco-2, Papp (B-A) (10^−6, cm/s)
[6] = Homo sapiens, MDA-MB-231, 144 h, Table 2 (untitled), Test Example 2.2

Row | SMILES | IC50 ([1]; Homo sapiens, MDA-MB-231, 144 h, Table 3, Test Example 2.3) | IC50 [2] | Papp (A-B) (10^−6, cm/s) [3] | Papp (B-A) (10^−6, cm/s) [3] | P-gp substrate [4] | IC50 ([1]; Table 2 (untitled), Test Example 2.2) | IC50 [1, 6] | Papp A→B at 2 h [5] | Papp B→A at 2 h [5]
1 | CC[C@@]1(O)C(=O)OCc2c1cc1n(c2=O)Cc2c-1nc1cc(F)c(C)c3c1c2[C@@H](NC(=O)C[C@@H](C)O)CC3 [P-III-20, (R)—N-((1S,9S)-9-ethyl-5-fluoro-9-hydroxy-4-methyl-10,13-dioxo-2,3,9,10,13,15-hexahydro-1H,12H-benzo[de]pyrano[3′,4′: 6,7]indolizino[1,2-b]quinolin-1-yl)-3-hydroxybutanamide] | 6.65 nM | 20 nM |  |  |  |  |  |  | 
2 | CC[C@@]1(O)C(=O)OCc2c1cc1n(c2=O)Cc2c-1nc1cc(F)c(C)c3c1c2[C@@H](NC(=O)C1CCC(O)CC1)CC3 (single isomer, unassigned) [P-II-2] |  |  | 0.07 10^−6, cm/s | 1.70 10^−6, cm/s | neither transporter P-gp substrates nor transporter BCRP substrates | 19.3 nM |  |  | 
3 | CC[C@@]1(O)C(=O)OCc2c1cc1n(c2=O)Cc2c-1nc1cc(F)c(C)c3c1c2[C@@H](NC(=O)[C@H]1C[C@@H](O)C1)CC3 [P-II-3, (1s,3R)-N-((1S,9S)-9-ethyl-5-fluoro-9-hydroxy-4-methyl-10,13-dioxo-2,3,9,10,13,15-hexahydro-1H,12H-benzo[de]pyrano[3′,4′:6,7]indolizino[1,2-b]quinolin-1-yl)-3-hydroxycyclobutane-1-carboxamide] |  |  | 0.20 10^−6, cm/s | 5.52 10^−6, cm/s | neither transporter P-gp substrates nor transporter BCRP substrates |  | 9.4 nM | 0.17 ×10⁻⁶ cm/s | 4.83 ×10⁻⁶ cm/s
4 | CC[C@@]1(O)C(=O)OCc2c1cc1n(c2=O)Cc2c-1nc1cc(F)c(C)c3c1c2[C@@H](NC(=O)C1CCC(O)CC1)CC3 (single isomer, unassigned) [P-II-1] |  |  | 0.20 10^−6, cm/s | 5.52 10^−6, cm/s | neither transporter P-gp substrates nor transporter BCRP substrates |  | 12.9 nM |  | 
5 | CC[C@@]1(O)C(=O)OCc2c1cc1n(c2=O)Cc2c-1nc1cc(F)c(C)c3c1c2[C@@H](NC(=O)[C@H]1C[C@H](O)C1)CC3 [P-II-4, (1r,3S)-N-((1S,9S)-9-ethyl-5-fluoro-9-hydroxy-4-methyl-10,13-dioxo-2,3,9,10,13,15-hexahydro-1H,12H-benzo[de]pyrano[3′,4′:6,7]indolizino[1,2-b]quinolin-1-yl)-3-hydroxycyclobutane-1-carboxamide] |  |  | 0.06 10^−6, cm/s | 1.65 10^−6, cm/s | neither transporter P-gp substrates nor transporter BCRP substrates |  | 7.6 nM | 0.05 ×10⁻⁶ cm/s | 1.72 ×10⁻⁶ cm/s
